Laboratory results taken from ChEMBL document CHEMBL1687756 (Antimicrob Agents Chemother, 2010).

Experiments:
[1] = AUC (0 to infinity) in Beagle dog at 1.25 mg/kg, iv after 2 days; type: ADME, organism-based, Canis lupus familiaris; parameters: dose 1.25 mg/kg, route intravenous, time infinity; details: plasma
[2] = AUC (0 to last) in Beagle dog at 5 mg/kg administered intramuscularly after 176 days; type: ADME, organism-based, Canis lupus familiaris; parameters: dose 5 mg/kg, route intramuscular, time 0 - last; details: plasma, im
[3] = Tmax in Beagle dog at 5 mg/kg administered intramuscularly after 184 days; type: ADME, organism-based, Canis lupus familiaris; parameters: dose 5 mg/kg, route intramuscular; details: in vivo, im
[4] = AUC (0 to last) in Beagle dog at 5 mg/kg, sc after 184 days; type: ADME, organism-based, Canis lupus familiaris; parameters: time 0 - last, dose 5 mg/kg, route subcutaneous; details: plasma
[5] = Drug level in Beagle dog muscle at injected site at 5 mg/kg administered intramuscularly after 6 months; type: ADME, organism-based, Canis lupus familiaris, Muscle tissue; parameters: dose 5 mg/kg, route intramuscular; details: im, read-out: Drug uptake
[6] = Drug level in male Beagle dog spleen at 200 mg/kg, sc after 3 months; type: ADME, organism-based, Canis lupus familiaris; parameters: dose 200 mg/kg, route subcutaneous; details: read-out: Drug uptake
[7] = Drug level in male Beagle dog spleen at 400 mg/kg, sc after 3 months; type: ADME, organism-based, Canis lupus familiaris; parameters: dose 400 mg/kg, route subcutaneous; details: read-out: Drug uptake
[8] = Drug level in male Beagle dog thymus at 400 mg/kg administered intramuscularly after 3 months; type: ADME, organism-based, Canis lupus familiaris; parameters: dose 400 mg/kg, route intramuscular; details: im, read-out: Drug uptake
[9] = Drug level in female Beagle dog spleen at 200 mg/kg, sc after 3 months; type: ADME, organism-based, Canis lupus familiaris; parameters: dose 200 mg/kg, route subcutaneous; details: read-out: Drug uptake
[10] = Ratio of drug level in spleen to plasma in male Beagle dog at 400 mg/kg, sc after 3 months; type: ADME, organism-based, Canis lupus familiaris; parameters: dose 400 mg/kg, route subcutaneous
[11] = Ratio of drug level in spleen to plasma in male Beagle dog at 200 mg/kg administered intramuscularly after 3 months; type: ADME, organism-based, Canis lupus familiaris; parameters: dose 200 mg/kg, route intramuscular; details: im
[12] = Plasma concentration in Beagle dog at 5 mg/kg, sc after 6 months; type: ADME, organism-based, Canis lupus familiaris; parameters: dose 5 mg/kg, route subcutaneous
[13] = Drug level in Beagle dog liver at 5 mg/kg administered intramuscularly after 6 months; type: ADME, organism-based, Canis lupus familiaris; parameters: dose 5 mg/kg, route intramuscular; details: im, read-out: Drug uptake
[14] = Ratio of drug level in liver to plasma in Beagle dog at 5 mg/kg, sc after 3 months; type: ADME, organism-based, Canis lupus familiaris; parameters: dose 5 mg/kg, route subcutaneous
[15] = Drug level in Beagle dog lymph node iliac at 5 mg/kg administered intramuscularly after 1 month; type: ADME, organism-based, Canis lupus familiaris; parameters: dose 5 mg/kg, route intramuscular; details: im, read-out: Drug uptake
[16] = Drug level in Beagle dog lymph node iliac at 5 mg/kg administered intramuscularly after 3 months; type: ADME, organism-based, Canis lupus familiaris; parameters: dose 5 mg/kg, route intramuscular; details: im, read-out: Drug uptake
[17] = Drug level in Beagle dog lymph node iliac at 5 mg/kg, sc after 1 month; type: ADME, organism-based, Canis lupus familiaris; parameters: dose 5 mg/kg, route subcutaneous; details: read-out: Drug uptake
[18] = Drug level in Beagle dog lymph node iliac at 5 mg/kg, sc after 6 months; type: ADME, organism-based, Canis lupus familiaris; parameters: dose 5 mg/kg, route subcutaneous; details: read-out: Drug uptake
[19] = Drug level in Beagle dog lymph node popliteal at 5 mg/kg administered intramuscularly after 3 months; type: ADME, organism-based, Canis lupus familiaris; parameters: dose 5 mg/kg, route intramuscular; details: im, read-out: Drug uptake
[20] = Drug level in Beagle dog spleen at 5 mg/kg, sc after 6 months; type: ADME, organism-based, Canis lupus familiaris; parameters: dose 5 mg/kg, route subcutaneous; details: read-out: Drug uptake
[21] = Plasma concentration in male Beagle dog at 200 mg/kg, sc after 1 month; type: ADME, organism-based, Canis lupus familiaris; parameters: dose 200 mg/kg, route subcutaneous
[22] = Plasma concentration in male Beagle dog at 200 mg/kg administered intramuscularly after 1 month; type: ADME, organism-based, Canis lupus familiaris; parameters: dose 200 mg/kg, route intramuscular; details: im
[23] = Drug level in male Beagle dog spleen at 400 mg/kg, sc after 1 month; type: ADME, organism-based, Canis lupus familiaris; parameters: dose 400 mg/kg, route subcutaneous; details: read-out: Drug uptake
[24] = Drug level in male Beagle dog thymus at 200 mg/kg, sc after 1 month; type: ADME, organism-based, Canis lupus familiaris; parameters: dose 200 mg/kg, route subcutaneous; details: read-out: Drug uptake
[25] = Drug level in female Beagle dog thymus at 400 mg/kg, sc after 1 month; type: ADME, organism-based, Canis lupus familiaris; parameters: dose 400 mg/kg, route subcutaneous; details: read-out: Drug uptake
[26] = Ratio of drug level in spleen to plasma in female Beagle dog at 400 mg/kg administered intramuscularly after 1 month; type: ADME, organism-based, Canis lupus familiaris; parameters: dose 400 mg/kg, route intramuscular; details: im
[27] = Ratio of drug level in thymus to plasma in female Beagle dog at 200 mg/kg, sc after 1 month; type: ADME, organism-based, Canis lupus familiaris; parameters: dose 200 mg/kg, route subcutaneous
[28] = test system: Canis familiaris; experiment: Toxicity in Beagle dog assessed as white deposits at 20 mg/kg administered intramuscularly after 3 months; type: organism-based, Canis lupus familiaris; parameters: dose 20 mg/kg, route intramuscular; details: in vivo, im, 2191.5 h
[29] = test system: Canis familiaris; experiment: Toxicity in Beagle dog assessed as irritation at 20 mg/kg, sc after 3 months; type: organism-based, Canis lupus familiaris; parameters: dose 20 mg/kg, route subcutaneous; details: in vivo, 2191.5 h
[30] = Cmax in male dog at 200 mg, sc after 85 days; details: in vivo
[31] = Tmax in male dog at 400 mg administered intramuscularly after 85 days; details: in vivo, im
[32] = AUC (0 to last) in female dog at 400 mg administered intramuscularly after 85 days; details: plasma, im

With `Cc1cc(/C=C/C#N)cc(C)c1Nc1ccnc(Nc2ccc(C#N)cc2)n1` [RILPIVIRINE] as the molecule, how does the AUC(0-inf) [1] read?
The AUC(0-inf) was 8660 ng·h/mL.

What about the AUC(0-t) at 4224 h [2] of the same molecule?
The AUC(0-t) at 4224 h was 23200 ng·h/mL.

And the Tmax [3]?
Its Tmax is 24 h.

And the AUC(0-t) at 4416 h [4]?
The AUC(0-t) at 4416 h was 24400 ng·h/mL.

And the concentration at 4383 h [5]?
The concentration at 4383 h was 11500 ng/g.

And the concentration at 2191.5 h [6]?
Its concentration at 2191.5 h is 36.2 ng/g.

What about the concentration at 2191.5 h [7] of the same molecule?
The concentration at 2191.5 h was 11.3 ng/g.

And the concentration at 2191.5 h [8]?
The concentration at 2191.5 h was 76 ng/g.

And the concentration at 2191.5 h [9]?
The concentration at 2191.5 h was 49.5 ng/g.

And the Kp at 2191.5 h [10]?
The Kp at 2191.5 h was 2.3.

And the Kp at 2191.5 h [11]?
The Kp at 2191.5 h was 2.7.

And the concentration at 4383 h [12]?
Its concentration at 4383 h is 1.3 ng/mL.

And the concentration at 4383 h [13]?
Its concentration at 4383 h is 11.6 ng/g.

And the Kp at 2191.5 h [14]?
Its Kp at 2191.5 h is 14.

And the concentration at 730.5 h [15]?
The concentration at 730.5 h was 19000 ng/g.

What about the concentration at 2191.5 h [16] of the same molecule?
Its concentration at 2191.5 h is 15.3 ng/g.

And the concentration at 730.5 h [17]?
Its concentration at 730.5 h is 64.9 ng/g.

What about the concentration at 4383 h [18] of the same molecule?
Its concentration at 4383 h is 9.9 ng/g.

What about the concentration at 2191.5 h [19] of the same molecule?
The concentration at 2191.5 h was 13.7 ng/g.

What about the concentration at 4383 h [20] of the same molecule?
Its concentration at 4383 h is 7.1 ng/g.

And the concentration at 730.5 h [21]?
The concentration at 730.5 h was 95 ng/mL.

What about the concentration at 730.5 h [22] of the same molecule?
The concentration at 730.5 h was 74.5 ng/mL.

What about the concentration at 730.5 h [23] of the same molecule?
Its concentration at 730.5 h is 569 ng/g.

And the concentration at 730.5 h [24]?
The concentration at 730.5 h was 576 ng/g.

What about the concentration at 730.5 h [25] of the same molecule?
Its concentration at 730.5 h is 1200 ng/g.

And the Kp at 730.5 h [26]?
The Kp at 730.5 h was 2.6.

What about the Kp at 730.5 h [27] of the same molecule?
Its Kp at 730.5 h is 3.9.

What about the Activity [28] of the same molecule?
Its Activity is “Non-toxic”.

And the Activity [29]?
The Activity was “Non-toxic”.

What about the Cmax [30] of the same molecule?
Its Cmax is 107 ng/mL.

And the Tmax [31]?
The Tmax was 17 h.

What about the AUC(0-t) at 2040 h [32] of the same molecule?
Its AUC(0-t) at 2040 h is 265000 ng·h/mL.
